26 compounds from patent US8962608B2, “Cycloalkylnitrile pyrazole carboxamides as janus kinase inhibitors” (Merck Sharp & Dohme Corp., priority 2011, dated 2015) can be followed below.

Assay [1] has as its target JAK2 (recombinant purified GST-tagged catalytic domain) (Homo sapiens (Human), UniProt O60674).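 Also: biochemical JAK kinase assay with HTRF detection.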
For assay [2], the target named is JAK1 (recombinant purified GST-tagged catalytic domain) (Homo sapiens (Human), UniProt P23458).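 Also: biochemical assay with HTRF read-out.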
Sequence of JAK1 (recombinant purified GST-tagged catalytic domain) (P23458 875-1153): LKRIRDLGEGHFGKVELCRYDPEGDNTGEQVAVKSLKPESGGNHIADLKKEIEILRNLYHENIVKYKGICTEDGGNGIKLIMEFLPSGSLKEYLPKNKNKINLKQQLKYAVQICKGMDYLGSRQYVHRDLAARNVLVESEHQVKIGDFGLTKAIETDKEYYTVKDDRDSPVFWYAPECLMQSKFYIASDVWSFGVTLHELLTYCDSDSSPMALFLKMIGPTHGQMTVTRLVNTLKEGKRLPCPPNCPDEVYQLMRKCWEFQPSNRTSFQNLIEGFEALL

Sequence of JAK2 (recombinant purified GST-tagged catalytic domain) (O60674 849-1124): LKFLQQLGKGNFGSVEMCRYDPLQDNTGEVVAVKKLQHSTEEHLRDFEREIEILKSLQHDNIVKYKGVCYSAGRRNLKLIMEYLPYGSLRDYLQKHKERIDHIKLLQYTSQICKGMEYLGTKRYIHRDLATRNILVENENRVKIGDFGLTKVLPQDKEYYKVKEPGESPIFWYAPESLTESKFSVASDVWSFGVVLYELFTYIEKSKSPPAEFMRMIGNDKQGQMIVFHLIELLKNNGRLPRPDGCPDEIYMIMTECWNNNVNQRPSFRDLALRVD

On to `N#C[C@H]1CCCCC1n1cc(C(N)=O)c(Nc2ccc(S(=O)(=O)C(F)F)c(CO)c2)n1` (mixture of isomers) [Example 17-64, 1-[(1S,2S and 1R,2R )-2-cyanocyclohexyl]-3-({4-[(difluoromethyl)sulfonyl]-3-(hydroxymethyl)phenyl}amino)-1H-pyrazole-4-carboxamide], for which the IC50 in assay [1] turned out to be 14 nM; in assay [2], 2 nM.
Take `C[C@]1(C#N)CC[C@@H](F)C[C@@H]1n1cc(C(N)=O)c(Nc2ccc(F)cc2)n1` (mixture of isomers) [Example 19-1, 1-((1S,2S,5R and 1R,2R,5S)-2-cyano-5-fluoro-2-methylcyclohexyl)-3-((4-fluorophenyl)amino)-1H-pyrazole-4-carboxamide]: the IC50 in assay [1] was determined as 8 nM; in assay [2], 3 nM.
In the case of `C[C@]1(C#N)CCCC[C@@H]1n1cc(C(N)=O)c(Nc2ccc(F)cc2)n1` (mixture of isomers) [Example 19-2, 1-((1S,2S and 1R,2R)-2-cyano-2-methylcyclohexyl)-3-((4-fluorophenyl)amino)-1H-pyrazole-4-carboxamide], the IC50 in assay [1] stood at 11 nM; in assay [2], 4 nM.
`N#C[C@H]1CC(F)CC[C@@H]1n1cc(C(N)=O)c(Nc2ccccc2)n1` (mixture of isomers) [Example 22-1, 1-[(1S,2S and 1R,2R)-2-Cyano-4-fluorocyclohexyl]-3-(phenylamino)-1H-pyrazole-4-carboxamide]: the figures for the IC50 in assay [1] and in assay [2] were 28 nM and 4 nM, respectively.
Regarding `CS(=O)(=O)N[C@H]1CC[C@H](n2cc(C(N)=O)c(Nc3ccc(F)cc3)n2)[C@@H](C#N)C1` (mixture of isomers) [Example 38-1, 1-{(1S,2S,4S and 1R,2R,4R)-2-cyano-4-[(methylsulfonyl)amino]cyclohexyl}-3-[(4-fluorophenyl)amino]-1H-pyrazole-4-carboxamide], the IC50 in assay [1] turned out to be 14 nM; in assay [2], 2 nM.
For `CS(=O)(=O)N[C@@H]1CC[C@H](n2cc(C(N)=O)c(Nc3ccc(F)cc3)n2)[C@@H](C#N)C1` (mixture of isomers) [Example 38-2, 1-{(1S,2S,4R and 1R,2R,4S)-2-cyano-4-[(methylsulfonyl)amino]cyclohexyl}-3-[(4-fluorophenyl)amino]-1H-pyrazole-4-carboxamide], the values for the IC50 in assay [1] and in assay [2] were 12 nM and 0.9 nM, respectively.
Turning to `CC(C)(C)OC(=O)NCC1CC[C@H](C#N)[C@@H](n2cc(C(N)=O)c(Nc3ccc(F)cc3)n2)C1` (single isomer, unassigned) [Example 11-9, tert-butyl {[(1R or S 3S,4S) and (1S or R, 3R, 4R)]-3-{4-carbamoyl-3-[(4-fluorophenyl)amino]-1H-pyrazol-1-yl}-4-cyanocyclohexyl]methyl}carbamate], the IC50 in assay [1] was found to be 434 nM; in assay [2] it was 21 nM.
Regarding `CC(C)(C)OC(=O)NCC1CC[C@H](C#N)[C@@H](n2cc(C(N)=O)c(Nc3ccc(F)cc3)n2)C1` (single isomer, unassigned) [Example 11-10, tert-butyl {[(1S or R,3S,4S) and (1R or S,3R,4R)]-3-{4-carbamoyl-3-[(4-fluorophenyl)amino]-1H-pyrazol-1-yl}-4-cyanocyclohexyl]methyl}carbamate], the IC50 came out at 1300 nM in assay [1] and 110 nM in assay [2].
As for `N#C[C@H]1CCCC[C@@H]1n1cc(C(N)=O)c(Nc2cc(Cl)cc(Cl)c2)n1` (single isomer, unassigned) [Example 17-54, 1-[(1S,2S or 1R, 2R)-2-cyanocyclohexyl]-3-[(3,5-dichlorophenyl)amino]-1H-pyrazole-4-carboxamide], the IC50 in assay [1] was determined as 119 nM; in assay [2] it was 18 nM.
Regarding `N#C[C@H]1C[C@H](N2CCC2)CC[C@@H]1n1cc(C(N)=O)c(Nc2ccc(OC(F)F)nc2)n1` (single isomer, unassigned) [Example 28-2, 1-[(1S,2S,4R or 1R,2R,4S)-4-(azetidin-1-yl)-2-cyanocyclohexyl]-3-{[6-(difluoromethoxy)pyridin-3-yl]amino}-1H-pyrazole-4-carboxamide], the IC50 stood at 67 nM in assay [1] and 4 nM in assay [2].
`N#C[C@H]1C[C@@H](N2CCC2)CC[C@@H]1n1cc(C(N)=O)c(Nc2ccc(OC(F)F)nc2)n1` (single isomer, unassigned) [Example 28-3, 1-[(1S,2S,4S or 1R,2R,4R)-4-(azetidin-1-yl)-2-cyanocyclohexyl]-3-{[6-(difluoromethoxy)pyridin-3-yl]amino}-1H-pyrazole-4-carboxamide]: the IC50 was 87 nM in assay [1] and 5 nM in assay [2].
Turning to `N#C[C@H]1C[C@@H](NCC(F)F)CC[C@@H]1n1cc(C(N)=O)c(Nc2ccc(S(=O)(=O)C(F)F)cc2)n1` (single isomer, unassigned) [Example 28-126, 1-{(1S,2S,4S or 1R,2R,4R )-2-cyano-4-[(2,2-difluoroethyl)amino]cyclohexyl}-3-({4-[(difluoro-methyl)sulfonyl]phenyl}amino)-1H-pyrazole-4-carboxamide], the IC50 in assay [1] worked out at 5 nM; in assay [2] it was 0.5 nM.
Consider `N#C[C@H]1C[C@@H](NCC2(O)CC2)CC[C@@H]1n1cc(C(N)=O)c(Nc2ccc(Cl)cc2)n1` (single isomer, unassigned) [Example 28-220, 3-[(4-chlorophenyl)amino]-1-[(1S,2S,4S or 1R,2R,4R)-2-cyano-4-{[(1-hydroxycyclo-propyl)methyl]amino}cyclohexyl]-1H-pyrazole-4-carboxamide], for which the figures for the IC50 in assay [1] and in assay [2] were 30 nM and 2 nM, respectively.
Regarding `CC1(C)CN(C(=O)[C@H]2CC[C@H](n3cc(C(N)=O)c(Nc4ccc(Cl)cc4)n3)[C@@H](C#N)C2)C1` (single isomer, unassigned) [Example 35-1, 3-(4-chlorophenylamino)-1-((1S,2S,4S or 1R,2R,4R)-2-cyano-4-(3,3-dimethylazetidine-1-carbonyl)cyclohexyl)-1H-pyrazole-4-carboxamide], the IC50 turned out to be 45 nM in assay [1] and 6 nM in assay [2].
On to `CC1(C)CN(C(=O)[C@@H]2CC[C@@H](n3cc(C(N)=O)c(Nc4ccc(Cl)cc4)n3)[C@H](C#N)C2)C1` (single isomer, unassigned) [Example 35-2, 3-(4-chlorophenylamino)-1-((1R,2R,4R or 1S,2S,4S)-2-cyano-4-(3,3-dimethylazetidine-1-carbonyl)cyclohexyl)-1H-pyrazole-4-carboxamide], for which the IC50 was found to be 290 nM in assay [1] and 9 nM in assay [2].
Regarding `N#C[C@@H]1CCC2(C[C@H]1n1cc(C(N)=O)c(Nc3ccccc3)n1)OCCO2` (single isomer, unassigned) [Example 45-1, 1-[(7R,8R or 7S,8S)-8-Cyano-1,4-dioxaspiro[4.5]dec-7-yl]-3-(phenylamino)-1H-pyrazole-4-carboxamide], the IC50 came to 235 nM in assay [1] and 44 nM in assay [2].
Turning to `N#C[C@@H]1CCC2(C[C@@H]1n1cc(C(N)=O)c(Nc3ccccc3)n1)OCCO2` (single isomer, unassigned) [Example 45-2, 1-[(7S,8R or 7R,8S)-8-Cyano-1,4-dioxaspiro[4.5]dec-7-yl]-3-(phenylamino)-1H-pyrazole-4-carboxamide], the IC50 turned out to be 4 nM in assay [1] and 0.85 nM in assay [2].
Take `N#C[C@@H]1CCC2(C[C@H]1n1cc(C(N)=O)c(Nc3ccccc3)n1)OCCO2` (single isomer, unassigned) [Example 45-3, 1-[(7R,8R or 7S,8S)-8-Cyano-1,4-dioxaspiro[4.5]dec-7-yl]-3-(phenylamino)-1H-pyrazole-4-carboxamide]: the figures for the IC50 in assay [1] and in assay [2] were 308 nM and 147 nM, respectively.
Turning to `N#C[C@@H]1CCC2(C[C@@H]1n1cc(C(N)=O)c(Nc3ccccc3)n1)OCCO2` (single isomer, unassigned) [Example 45-4, 1-[(7S,8R or 7R,8S)-8-Cyano-1,4-dioxaspiro[4.5]dec-7-yl]-3-(phenylamino)-1H-pyrazole-4-carboxamide], the IC50 was determined as 59 nM in assay [1] and 13 nM in assay [2].
In the case of `N#CC1CCC2(CC1n1cc(C(N)=O)c(Nc3ccccc3)n1)OCCO2` (stereo not shown) [Example 2-3, 1-(8-cyano-1,4-dioxaspiro[4.5]dec-7-yl)-3-(phenylamino)-1H-pyrazole-4-carboxamide], the IC50 is 47 nM in assay [1] and 9 nM in assay [2].
On the same counts, the results for `COC(=O)[C@H]1CCC(n2cc(C(N)=O)c(Nc3ccc(F)cc3)n2)[C@@H](C#N)C1` (stereo partly shown) [Example 7-2] are 101 nM and 14 nM.
For the compound `CC1CCC(C#N)C(n2cc(C(N)=O)c(Nc3ccccc3)n2)C1` (stereo not shown) [Example 11-6, 1-(2-cyano-5-methylcyclohexyl)-3-(phenylamino)-1H-pyrazole-4-carboxamide], the IC50 in assay [1] stood at 38 nM; in assay [2] it was 7 nM.
For `N#C[C@@H]1CCCC(F)[C@@H]1n1cc(C(N)=O)c(Nc2ccccc2)n1` (stereo partly shown) [Example 23-2], the IC50 in assay [1] was 212 nM; in assay [2] it was 67 nM.
As to `COCCN[C@H]1CCC(n2cc(C(N)=O)c(Nc3ccc(S(=O)(=O)C(F)(F)F)cc3)n2)[C@@H](C#N)C1` (stereo partly drawn) [Example 27-16, 1-{(1S,2S,4S and1R,2R,4R)-2-cyano-4-[(2-methoxyethyl)amino]cyclohexyl}-3-({4-[(trifluoromethyl)sulfonyl]phenyl)amino)-1H-pyrazole-4-carboxamide], the IC50 in assay [1] came out at 35 nM; in assay [2], 1 nM.
As for `CC[N+]1([C@H]2CC[C@H](n3cc(C(N)=O)c(Nc4ccc(Cl)cc4)n3)[C@@H](C#N)C2)CCC1` [Example 31-3, 1-[(1S,3S,4S)-4-{4-carbamoyl-3-[(4-chlorophenyl)amino]-1H-pyrazol-1-yl}-3-cyanocyclohexyl]-1-ethylazetidinium], the values for the IC50 in assay [1] and in assay [2] were 28 nM and 1 nM, respectively.
Regarding `CC1(C)C[N+](C)([C@H]2CC[C@H](n3cc(C(N)=O)c(Nc4ccc(Cl)cc4)n3)[C@@H](C#N)C2)C1` [Example 31-4, 1-[(1S,3S,4S)-4-{4-carbamoyl-3-[(4-chlorophenyl)amino]-1H-pyrazol-1-yl}-3-cyanocyclohexyl]-1,3,3-trimethylazetidinium], the IC50 came out at 34 nM in assay [1] and 1 nM in assay [2].

What is called IC50 is the concentration needed to halve the response being measured.
